Our source for the IC50 values is patent publication US20220017516A1, “LOX INHIBITORS” (THE INSTITUTE OF CANCER RESEARCH: ROYAL CANCER HOSPITAL, priority 2018, published 2022).

One assay has as its target T1, diamine oxidase (DAO) (Sus scrofa, UniProt Q9TRC7).
T1 construct: purchased Sigma
T1 sequence (Q9TRC7 25-755): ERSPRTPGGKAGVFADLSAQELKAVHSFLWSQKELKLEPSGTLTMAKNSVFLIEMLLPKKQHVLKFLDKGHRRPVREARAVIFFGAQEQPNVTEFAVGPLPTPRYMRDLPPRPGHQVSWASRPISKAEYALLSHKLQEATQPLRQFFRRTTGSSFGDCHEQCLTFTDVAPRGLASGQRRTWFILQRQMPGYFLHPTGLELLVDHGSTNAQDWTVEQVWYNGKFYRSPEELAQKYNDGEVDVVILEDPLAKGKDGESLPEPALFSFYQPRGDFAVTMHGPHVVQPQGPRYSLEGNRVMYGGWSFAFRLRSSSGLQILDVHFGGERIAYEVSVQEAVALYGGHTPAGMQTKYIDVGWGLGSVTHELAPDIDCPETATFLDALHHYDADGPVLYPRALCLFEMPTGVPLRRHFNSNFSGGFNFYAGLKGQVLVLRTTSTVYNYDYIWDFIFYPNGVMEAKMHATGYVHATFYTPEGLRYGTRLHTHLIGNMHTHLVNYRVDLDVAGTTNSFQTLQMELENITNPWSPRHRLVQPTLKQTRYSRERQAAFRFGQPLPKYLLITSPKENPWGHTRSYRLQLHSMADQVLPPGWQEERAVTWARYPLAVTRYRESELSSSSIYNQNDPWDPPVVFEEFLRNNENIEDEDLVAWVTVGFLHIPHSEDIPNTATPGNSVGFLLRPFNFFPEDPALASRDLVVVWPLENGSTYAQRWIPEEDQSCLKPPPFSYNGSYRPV
Nature of the assay: Diamine oxidase catalytic activity assay (ROS Glo). The class given is biochemical. The method, then:
The diamine oxidase (DAO) catalytic activity was determined using the Promega ROS Glo assay kit (G8821); DAO was purchased from Sigma and cadaverine dihydrochloride was used as the substrate at a concentration of 97.8 mM. The concentrations of the chemical inhibitors were the same as in the MAO assays. Luminescence was measured with an integration time of 500 ms/well using a SpectaMax M5 plate reader and resulting IC50 values were calculated using GraphPad Prism software.
(§1) In another setting, the DAO and MAO assays were performed in 384-well plates (Greiner) and test compound was added using a Labcyte Echo™ Acoustic Handler for the same final concentrations as in the 96-well setting. Luminescence was measured with BMG LABTECH PHERAstar FS plate reader.

The target of assay [1] is T2, monoamine oxidase B (MAO-B) (Homo sapiens, UniProt P27338).
T2 construct: purchased Sigma M7441
T2 sequence (P27338 1-520): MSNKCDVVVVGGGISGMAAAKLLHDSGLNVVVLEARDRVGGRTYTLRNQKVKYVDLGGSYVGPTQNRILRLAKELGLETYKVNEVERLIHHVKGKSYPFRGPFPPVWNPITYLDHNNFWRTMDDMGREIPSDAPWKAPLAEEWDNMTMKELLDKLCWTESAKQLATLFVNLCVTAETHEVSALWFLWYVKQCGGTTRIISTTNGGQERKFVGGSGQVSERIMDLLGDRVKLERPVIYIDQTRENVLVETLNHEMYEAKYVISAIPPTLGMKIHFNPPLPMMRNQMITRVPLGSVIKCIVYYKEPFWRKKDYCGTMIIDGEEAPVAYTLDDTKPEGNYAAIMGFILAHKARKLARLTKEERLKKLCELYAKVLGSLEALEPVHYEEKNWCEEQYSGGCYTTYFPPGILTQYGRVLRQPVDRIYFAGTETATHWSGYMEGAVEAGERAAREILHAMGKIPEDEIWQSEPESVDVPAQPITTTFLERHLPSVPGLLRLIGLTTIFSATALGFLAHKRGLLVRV
As to the kind of experiment: Amine oxidase activity assay (MAO-Glo), MAO-B. The class given is biochemical. The method, then: The Promega MAO-Glo assay kit (V1402) was used to assess monoamine oxidase A (MAO-A) and monoamine oxidase B (MAO-B) activity. MAO substrate was prepared at 80 μM with the specific MAO-A/B reaction buffer. Overall, 0.5 μl test compound was added to 25 μl MAO substrate at 100, 30, 10, 3, 1, 0.3, 0.1, 0.03, 0.01 and 0.003 μM (final concentration) in a 96-well white, flat bottom plate. Overall, 25 μl of 1:520 dilution of MAO-A enzyme (Promega, V1452) or 25 μl of 1:52 dilution of MAO-B enzyme (Sigma, M7441) in specific MAO-A/B reaction buffer was added to each well (enzyme prepared at 2×final concentration) and plates were incubated for 1 h at room temperature. Finally, 50 μl per well luciferin detection reagent was added and plates were incubated for 20 min at room temperature, protected from light. Luminescence was measured with an integration time of 500 ms per well using a SpectaMax M5 plate reader and resulting IC50 values were calculated using GraphPad Prism software.
as §1

Some results are limits rather than exact numbers.

By IC50 is commonly meant the point on the concentration scale where inhibition reaches its midpoint. As for `CCOc1ccc(N2C[C@H]3CN(CCS(=O)(=O)CCN)C[C@@H]2C(C)(C)C3)cc1` [Example 1, 2-((2-((1R,5S)-6-(4-ethoxyphenyl)-9,9-dimethyl-3,6-diazabicyclo[3.2.2]nonan-3-yl)ethyl)sulfonyl)ethan-1-amine], the half-maximal inhibitory concentration (IC50) (on diamine oxidase (DAO); in assay [1]) was above 100 µM throughout. `CCOc1ccc(N2C[C@@H]3C[C@H]2CN3CCS(=O)(=O)CCN)cc1` [Example 2, 2-((2-((1S,4S)-5-(4-ethoxyphenyl)-2,5-diazabicyclo[2.2.1]heptan-2-yl)ethyl)sulfonyl)-ethan-1-amine]: the IC50 (against diamine oxidase (DAO); in assay [1]) was above 100 µM in each case. Molecule `CCOc1ccc(N2CC3CN(CCS(=O)(=O)CCN)CC3C2)cc1` (stereo not drawn) [Example 4, 2-((2-(5-(4-ethoxyphenyl)hexahydropyrolo [3,4-c]pyrrol-2(1H)-yl)ethyl)sulfonyl)ethan-1-amine] returned an IC50 in assay [1] above 100 µM. On to `CCOc1ccc(N2C[C@H]3CN(C(=O)CS(=O)(=O)CCN)C[C@@H]2C(C)(C)C3)cc1` [Example 7, 2-((2-aminoethyl)sulfonyl)-1-((1S,5S)-6-(4-ethoxyphenyl)-9,9-dimethyl-3,6-diazabicyclo[3.2.2]nonan-3-yl)ethan-1-one], for which the IC50 (against diamine oxidase (DAO); in assay [1]) was above 100 µM throughout. In the case of `CCOc1ccc(N2C[C@@H]3C[C@H]2CN3C(=O)CS(=O)(=O)CCN)cc1` [Example 8, 2-((2-aminoethyl)-sulfonyl)-1-((1S,4S)-5-(4-ethoxyphenyl)-2,5-diazabicyclo-[2.2.1]heptan-2-yl)-ethan-1-one], the concentration for half-maximal inhibition (IC50) (at diamine oxidase (DAO); in assay [1]) was above 100 µM throughout. `Cc1ccc(S(=O)(=O)N2C[C@H]3CN(C(=O)CS(=O)(=O)CCN)C[C@H]3C2)cc1` [Example 11, 2-((2-aminoethyl)-sulfonyl)-1-(cis-5-tosylhexahydro-pyrrolo[3,4-c]pyrrol-2(1H)-yl)ethan-1-one]: the half-inhibitory concentration (IC50) (at diamine oxidase (DAO); in assay [1]) was above 100 µM in each case. For the molecule `NCCS(=O)(=O)CC(=O)N1CCN(c2ncccn2)CC1` [Example 12, 2-((2-Aminoethyl)-sulfonyl)-1-(4-(pyrimidin-2-yl)-piperazin-1-yl)ethan-1-one], the IC50 (against diamine oxidase (DAO); in assay [1]) was above 100 µM throughout.

`NCCS(=O)(=O)CC(=O)N1CCN(c2ccccc2)CC1` [Example 13, 2-((2-Aminoethyl)-sulfonyl)-1-(4-phenylpiperazin-1-yl)ethan-1-one]: the IC50 (on diamine oxidase (DAO); in assay [1]) was above 100 µM each time. The molecule `CCOc1ccc(N2C[C@H]3CN(c4ccc(S(=O)(=O)CCN)cc4)C[C@@H]2C(C)(C)C3)cc1` [Example 33, 2-((4-((1R,5S)-6-(4-ethoxyphenyl)-9,9-dimethyl-3,6-diazabicyclo [3.2.2]nonan-3-yl)phenyl)sulfonyl)ethan-1-amine] yielded an IC50 in assay [1] above 100 µM.

Take `CCOc1ccc(N2C[C@H]3CN(C(=O)NCCS(=O)(=O)CCN)C[C@@H]2C(C)(C)C3)cc1` [Example 38, (1S,5S)—N-(2-((2-aminoethyl)sulfonyl)ethyl)-6-(4-ethoxyphenyl)-9,9-dimethyl-3,6-diazabicyclo[3.2.2]nonane-3-carboxamide]: the IC50 at diamine oxidase (DAO) is above 100 µM. For the molecule `CCOC(=O)CCC(C(=O)N1C[C@@H]2C[C@H]1CN2c1ccc(OCC)cc1)S(=O)(=O)CCN` (stereo partly drawn) [Example 41, ethyl 4-((2-aminoethyl)sulfonyl)-5-((1S,4S)-5-(4-ethoxyphenyl)-2,5-diazabicyclo[2.2.1]heptan-2-yl)-5-oxopentanoate], the IC50 (on diamine oxidase (DAO); in assay [1]) was above 100 µM in each case. On to `CCOc1ccc(N2C[C@@H]3C[C@H]2CN3C(=O)C2(S(=O)(=O)CCN)CC2)cc1` [Example 42, (1-((2-Aminoethyl)sulfonyl)cyclopropyl)((1S,4S)-5-(4-ethoxyphenyl)-2,5-diazabicyclo[2.2.1]heptan-2-yl)methanone], for which the IC50 (against diamine oxidase (DAO); in assay [1]) was above 100 µM each time.
